“Also recorded” adds a separate entry of the source.
Tests used:
[1] = tested on: pancreatic adenocarcinoma cell lines; experiment: Growth, BrdU incorporation and apoptosis of pancreatic cancer cell lines (results stated for the lines together); format: cell-based, human; conditions: for pancreatic cancer cell growth or survival: drug treatment vs untreated control cells, NS-398 up to 25 μM, sodium salicylate up to 100 μM, sulindac sulfone up to 300 μM, FIG. 3B, 5B
Protocol: (§1) The small chemical inhibitors were used at the following final concentrations: up to 250 μM for sulindac (Sigma), up to 300 μM for sulindac sulfone (Calbiochem or ICN), NS-398 up to 25 μM (Calbiochem), sodium salicylate up to 100 μM (Calbiochem). […] To test for drug sensitivity, the cells were plated in control medium or in medium containing the drug of interest for 2 to 5 days. The culture media was changed every 48 hrs. The images showing cell morphology were taken with a Nikon inverted microscope.
(§2) Cells were pulsed with 10 μM BrdU for two hours and then harvested and fixed. BrdU incorporation was detected with a fluorescein isothiocyanate conjugated anti-BrdU antibody (BD Biosciences) and total DNA was stained with 7-AAD (BD Biosciences). FACS analysis was performed according to the BD Biosciences BrdU flow kit manual. Cells in S-phase were defined as the BrdU-positive cell population with a DNA content between 2N and 4N. According to the manual, apoptotic cells were defined as a subpopulation of G0/G1 cells with DNA content lower than the diploid amount (<2N).
(§3) The cell lines were plated the day prior to transfection at a density of 8×10^4 cells/well in a 24-well plate. The luciferase reporter constructs used included: Top-Flash and Fop-Flash containing multimerized Tcf-Lef binding sites or nonfunctional sites, respectively; TK-Luc (Promega); and GliBS containing 8×Gli binding sites upstream of the TK minimal promoter (Sasaki et al., Development, 124:1313-1322, 1997). In different experiments, the reporter constructs were co-transfected with an expression vector containing a dominant-negative form of Lef1 or the endogenous Wnt inhibitor Icat. The dominant negative Lef1 (gift from S. Pleasure) was generated by cloning the 63 amino acid N-terminal deleted form of Lef1 into the pEF5 plasmid. This construct also contains an IRES-EGFP cassette. The cDNA coding for the Icat protein was cloned into pIRES2-EGFP (BD Biosciences Clontech). Transfections were performed using the Effectene transfection reagent […] according to the user's manual. A Renilla luciferase plasmid (Promega) was included to control for transfection efficiency. Transfected cells were cultured in medium containing serum. […] Cells were harvested 24 hrs after transfection, and luciferase activity was assayed using the Dual Luciferase kit (Promega), according to the user's manual.
Small interfering RNA (siRNA) oligonucleotides against β-catenin containing two thymidine residues (dTdT) at the 3′ end of the sequence (5′-[…] […] T-3′ set forth as SEQ ID NO:57) were used for treatment of cancer cells as described (Verma et al., Clin Cancer Res, 9:1291-1300, 2003). The GLI1 siRNA (sense 5′-[…] […]-3′ set forth as SEQ ID NO:58) was also used as described (Sanchez et al., Proc Natl Acad Sci USA 101:12561-12566, 2004). Small interfering RNA against GLI2 was ordered against the target sequence 5-[…] […] A-3′, set forth as SEQ ID NO:59). […] Cells were transfected with oligofectamine (Invitrogen) according to the user's manual, with a final siRNA concentration of 100 or 300 nM. Transfected cells were incubated for 48 hrs before harvesting.

[2] = tested on: Wnt signaling (Top-Flash reporter); experiment: Fop/Top-Flash luciferase reporter assay; format: cell-based, human; conditions: for Top-Flash reporter activity (Wnt signaling): CFPAC-1, BxPC3, L3.6sl, Panc4.21, 24 hrs after transfection, sulindac 250 μM, sulindac sulfone 150 μM, cyclopamine 10 μM, or co-transfection
Protocol: as §3
For each Fop-luciferase or Top-luciferase experiment, a renilla luciferase construct was included. For each experimental condition (drug treatment, co-transfection or siRNA), triplicate Top- and Fop-luciferase samples were analyzed. To equilibrate the total vector-DNA (or siRNA) amount in all samples, equivalent amounts of an empty expression vector or unrelated siRNAs were transfected into control samples. The following equations were used to obtain the normalized luciferase values and the relative (fold) activation. The firefly luciferase (Fop and Top) values were divided by the renilla luciferase values to obtain the normalized luciferase values. The normalized Top values for each condition were divided by the Fop values of the same condition (e.g., untreated Top/untreated Fop; drug-treated Top/drug-treated Fop). […] To minimize the number of bars in each figure, only representative average Fop values are included in the graphs.

[3] = tested on: Hedgehog signaling (GliBS-luc reporter); experiment: GliBS-luciferase reporter assay; format: cell-based, human; conditions: BxPC3 cells; cyclopamine 10 μM
Protocol: The cell lines were plated the day prior to transfection at a density of 8×10^4 cells/well in a 24-well plate. The luciferase reporter constructs used included: Top-Flash and Fop-Flash containing multimerized Tcf-Lef binding sites or nonfunctional sites, respectively; TK-Luc (Promega); and GliBS containing 8×Gli binding sites upstream of the TK minimal promoter (Sasaki et al., Development, 124:1313-1322, 1997). In different experiments, the reporter constructs were co-transfected with an expression vector containing a dominant-negative form of Lef1 or the endogenous Wnt inhibitor Icat. The dominant negative Lef1 (gift from S. Pleasure) was generated by cloning the 63 amino acid N-terminal deleted form of Lef1 into the pEF5 plasmid. This construct also contains an IRES-EGFP cassette. The cDNA coding for the Icat protein was cloned into pIRES2-EGFP (BD Biosciences Clontech). Transfections were performed using the Effectene transfection reagent […] according to the user's manual. A Renilla luciferase plasmid (Promega) was included to control for transfection efficiency. Transfected cells were cultured in medium containing serum. […] Cells were harvested 24 hrs after transfection, and luciferase activity was assayed using the Dual Luciferase kit (Promega), according to the user's manual. […]

[4] = tested on: Tcf1; experiment: Immunofluorescence of Tcf expression in pancreatic cancer cells; format: cell-based, human; conditions: pancreatic cancer cells (Panc4.21); cyclopamine for 24 hrs (FIG. 4C) or sulindac-treated
[5] = tested on: Tcf4; experiment: as above; format: cell-based, human; conditions: cyclopamine for 24 hrs (FIG. 4C) or sulindac-treated
[6] = tested on: Panc1.28; experiment: Sensitivity of pancreatic adenocarcinoma cells to drug treatment (cell proliferation, survival); format: cell-based, human; conditions: FIG. 6
Protocol: (§4) Human pancreatic adenocarcinoma cell lines HPAC, SW1990, Mpanc-96, SU86.86, PL45, Panc10.05 Panc2.03 and Panc8.13 were obtained from ATCC; cell lines MiaPaCa2, Panc1, CFPAC-1, HPAFII, Capan-2, AsPC1, Hs766T and BxPC3 were a gift from Schering Plough; cell lines COLO357, L3.3, L3.6 pl and L3.6 sl were a gift from I. Fidler; cell lines Panc3.27, Panc4.21, Panc5.04, Panc2.13, Panc1.28 and Panc6.03 were a gift from E. Jaffee. BxPC3 and the Panc cell lines were grown in RPMI medium (Gibco) supplemented with 10% FBS, L-glutamine and penicillin/streptomycin; medium for the Panc cells was also supplemented with insulin-transferrin-selenium (Gibco). The CFPAC-1, Panc1, AsPC1, Hs766T, L3.6sl and L3.6pl were grown in DMEM without phenol red (CellGro), supplemented with 10% FBS. Derivation and culture of PDC cells was as described (Schreiber et al., Gastroenterology, 127:250-260, 2004).
as §1, §2

[7] = tested on: Panc10.05; experiment: as above; format: cell-based, human; conditions: Panc 10.05; FIG. 6
Protocol: as §4, §1, §2

[8] = tested on: BxPC3 tumors; experiment: Subcutaneous tumor treatment in nude mice; format: in vivo, CD-1 nude mice
Protocol: (§5) A total of 0.1 ml Hanks' balanced salt solution and matrigel (1:1) containing 2×10^6 cells was injected subcutaneously into CD-1 nude mice (Charles River Laboratories). Tumors were grown for 4 days to a minimum volume of 125 mm^3. Treatment was initiated simultaneously for all subjects. Mice were injected with vector alone (peanut oil: PBS 7:3 v/v) or with a sulindac solution (3 mg/mouse/day) daily for 5 days. Sulindac sulfone was administered orally (1.5 mg/mouse/day). At the end of the treatment period, tumors were excised from mice, weighed and photographed.

[9] = tested on: CFPAC-1 tumors; experiment: Subcutaneous tumor treatment in nude mice; format: in vivo, CD-1 nude mice; conditions: treated for five days vs controls, sulindac 3 mg/mouse/day injected, sulindac sulfone 1.5 mg/mouse/day orally
Protocol: as §5

[10] = tested on: BxPC3; experiment: Sensitivity of pancreatic adenocarcinoma cells to drug treatment (cell proliferation, apoptosis); format: cell-based, human; conditions: vs untreated controls, FIG. 3B
Protocol: as §4, §1, §2

[11] = tested on: L3.6sl; experiment: as above; format: cell-based, human; conditions: vs untreated controls, FIG. 3B
Protocol: as §4, §1, §2

[12] = tested on: Panc4.21; experiment: as above; format: cell-based, human; conditions: vs untreated controls, FIG. 3B
Protocol: as §4, §1, §2

[13] = Solubility; format: physicochemical; conditions: required oral application
[14] = tested on: CFPAC-1; experiment: Sensitivity of pancreatic adenocarcinoma cells to drug treatment (cell proliferation, apoptosis); format: cell-based, human; conditions: CFPAC-1 (CFPAC); vs untreated controls; FIG. 3B, 5
Protocol: The culture media was changed every 48 hrs.
as §2

[15] = tested on: L3.6sl tumors; experiment: Subcutaneous tumor treatment in nude mice; format: in vivo, CD-1 nude mice
Protocol: as §5
Individual or combined treatment was initiated after tumors were palpable.

[16] = sulindac sulfone orally 1.5 mg/mouse/day, five days
[17] = treated for five days vs untreated controls, sulindac 3 mg/mouse/day injected, sulindac sulfone 1.5 mg/mouse/day orally

## ICAT: endogenous Wnt inhibitor; cDNA cloned into pIRES2-EGFP expression vector and transfected
[1]; four pancreatic cancer cell lines, 48 hours after transfection, siRNA 100 nM or 300 nM, FIG. 2C, 2D
  cell proliferation (BrdU incorporation) after transfection: strongly inhibits growth; also recorded: significantly reduced
[2]
  Top-Flash reporter activity (Wnt signaling): reduction of Top-Flash activity

## CC1=C2C[C@H]3[C@@H](CC=C4C[C@@H](O)CC[C@@]43C)[C@@H]2CC[C@]12O[C@@H]1C[C@H](C)CN[C@H]1[C@H]2C [cyclopamine, 11-deoxojervine]
[3]
  reduction of Hedgehog signaling: 17%
[4]
  Tcf1 expression: inhibits Tcf4 and Tcf1 expression; also recorded: reduce expression
[5]
  Tcf4 expression: efficiently abolished
[5]; listed as Cyclopamine
  Tcf4 expression: inhibits Tcf4 and Tcf1 expression
[2]; BxPC3 cells, cyclopamine 10 μM
  reduction of Wnt signaling: ~23%
[6]
  sensitivity / survival (phase contrast images): not sensitive
[7]
  sensitivity / survival (phase contrast images): not sensitive

## CC1=C(CC(=O)O)c2cc(F)ccc2/C1=C\c1ccc(S(C)(=O)=O)cc1 [sulindac sulfone]
[8]; [16]
  reduction of tumor mass: 60%
[8]; [17]
  tumor growth: reduced
[9]
  tumor growth (volume, size): largely unaffected
[1]; 75 μM sulindac sulfone, 5 μM cyclopamine or both, FIG. 4H
  cell proliferation as measured by BrdU incorporation: inhibits cell proliferation
[1]
  pancreatic cancer cell growth or survival: blocked Wnt signaling and cell survival
[10]
  cell growth: strongly inhibits growth
[11]
  cell growth: strongly inhibits growth
[12]
  cell growth: strongly inhibits growth
[13]
  solubility: limited solubility
[14]
  cell growth (proliferation, apoptosis): only mildly affected; also recorded: diminishes growth
[2]
  Top-Flash reporter activity (Wnt signaling): inhibit Wnt activity; also recorded: generally more effective than sulindac in blocking Wnt signaling
[2]; listed as Sulindac sulfone
  Top-Flash reporter activity (Wnt signaling): blocked Wnt signaling
[6]
  sensitivity / survival (phase contrast images): not sensitive
[7]
  sensitivity / survival (phase contrast images): not sensitive
[15]; [16]
  reduction of tumor mass: 50%
[15]; [17]
  tumor growth: reduced

## CS(=O)(=O)Nc1ccc([N+](=O)[O-])cc1OC1CCCCC1 [NS-398]
[1]
  pancreatic cancer cell growth or survival: Neither NS-398 (blocks COX-2 activity) nor salicylate (blocks COX-2 transcription) showed any measurable effect
[1]; listed as NS398
  pancreatic cancer cell growth or survival: comparable growth to untreated control cells

## O=C([O-])c1ccccc1O.[Na+] [sodium salicylate]
[1]
  pancreatic cancer cell growth or survival: comparable growth to untreated control cells
[1]; listed as salicylate
  pancreatic cancer cell growth or survival: Neither NS-398 (blocks COX-2 activity) nor salicylate (blocks COX-2 transcription) showed any measurable effect

From US20090012018A1, “Inhibition of pancretic cancer cell growth” (priority 2004, published 2009)
